Key:
Assay type in all cases: in vitro ADME
CYP3A4 = CYP3A4 (Homo sapiens, UniProt P08684); experiment: Metabolite formation by recombinant human CYP3A4; conditions: trazodone 4 μM; NADPH; 37 °C, 40 min
Description: (§1) Each reaction was terminated with acetonitrile, centrifuged, and the supernatant was analyzed by identical UHPLC-Orbitrap setup outlined in §2.2, allowing direct comparison of metabolite spectra across all in-vitro systems.

CYP2A6 = biological target: T1, CYP2A6 (Homo sapiens, UniProt P11509); experiment: Metabolite formation by recombinant human CYP2A6; conditions: trazodone 4 μM; NADPH; 37 °C, 40 min
T1 sequence (P11509 1-494): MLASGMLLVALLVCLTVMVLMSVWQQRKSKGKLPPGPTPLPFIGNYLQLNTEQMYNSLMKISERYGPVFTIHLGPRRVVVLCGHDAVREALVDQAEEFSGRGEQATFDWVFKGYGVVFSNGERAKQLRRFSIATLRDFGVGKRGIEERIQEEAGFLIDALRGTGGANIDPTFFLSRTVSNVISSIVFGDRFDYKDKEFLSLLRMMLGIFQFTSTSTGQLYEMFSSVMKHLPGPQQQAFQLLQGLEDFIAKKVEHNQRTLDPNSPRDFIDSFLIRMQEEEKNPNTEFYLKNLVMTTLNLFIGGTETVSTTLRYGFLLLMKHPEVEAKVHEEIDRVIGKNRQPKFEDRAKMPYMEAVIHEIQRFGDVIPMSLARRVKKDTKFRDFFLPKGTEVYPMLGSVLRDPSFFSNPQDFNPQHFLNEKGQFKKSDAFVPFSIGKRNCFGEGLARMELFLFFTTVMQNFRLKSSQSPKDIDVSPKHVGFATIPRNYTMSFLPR
Description: (§2) To confirm the role of individual CYP isoforms in metabolizing trazodone, recombinant human and rat CYP enzymes were employed in separate incubations. […] Each reaction was terminated with acetonitrile, centrifuged, and the supernatant was analyzed by identical UHPLC-Orbitrap setup outlined in §2.2, allowing direct comparison of metabolite spectra across all in-vitro systems. […] This procedure helped confirm the contributions of individual isoforms to specific biotransformation reactions.

FMO1 = biological target: T2, FMO1 (Homo sapiens, UniProt Q01740); experiment: Metabolite formation by recombinant human FMO1; conditions: trazodone 4 μM; 37 °C, 40 min
T2 sequence (Q01740 1-532): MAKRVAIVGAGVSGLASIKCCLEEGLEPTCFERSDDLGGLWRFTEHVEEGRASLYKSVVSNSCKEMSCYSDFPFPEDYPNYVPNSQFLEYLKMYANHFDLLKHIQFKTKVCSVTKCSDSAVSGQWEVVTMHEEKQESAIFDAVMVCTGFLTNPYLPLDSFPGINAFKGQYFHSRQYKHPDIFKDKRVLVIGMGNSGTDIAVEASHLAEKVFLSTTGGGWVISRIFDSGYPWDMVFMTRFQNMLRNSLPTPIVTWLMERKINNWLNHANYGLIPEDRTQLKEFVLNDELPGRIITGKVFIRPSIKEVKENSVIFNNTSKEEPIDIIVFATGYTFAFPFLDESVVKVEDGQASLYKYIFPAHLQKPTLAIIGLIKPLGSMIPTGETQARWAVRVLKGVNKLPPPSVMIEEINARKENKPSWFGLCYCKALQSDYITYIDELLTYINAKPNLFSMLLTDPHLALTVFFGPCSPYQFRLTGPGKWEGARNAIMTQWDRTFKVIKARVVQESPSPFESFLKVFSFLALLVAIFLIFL

CYP2C11 = biological target: T3, CYP2C11 (Rattus norvegicus, UniProt P08683); experiment: Metabolite formation by recombinant rat CYP2C11; conditions: trazodone 4 μM; NADPH; 37 °C, 40 min
T3 sequence (P08683 1-500): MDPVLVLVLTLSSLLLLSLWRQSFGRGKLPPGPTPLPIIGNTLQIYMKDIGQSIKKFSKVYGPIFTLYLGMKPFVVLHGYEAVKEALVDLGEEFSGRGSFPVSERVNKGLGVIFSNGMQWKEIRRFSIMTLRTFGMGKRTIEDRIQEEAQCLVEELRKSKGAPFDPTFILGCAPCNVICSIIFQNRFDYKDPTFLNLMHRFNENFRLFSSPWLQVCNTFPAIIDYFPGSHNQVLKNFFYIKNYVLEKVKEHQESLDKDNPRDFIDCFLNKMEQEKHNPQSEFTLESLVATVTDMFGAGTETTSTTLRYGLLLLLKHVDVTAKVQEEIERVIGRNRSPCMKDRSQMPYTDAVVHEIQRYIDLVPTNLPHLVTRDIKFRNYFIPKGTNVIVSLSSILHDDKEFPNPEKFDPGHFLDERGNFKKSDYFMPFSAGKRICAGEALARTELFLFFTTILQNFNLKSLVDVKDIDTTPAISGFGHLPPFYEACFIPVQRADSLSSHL
Description: as §2

CYP2D6 = CYP2D6 (Homo sapiens, UniProt P10635); experiment: Metabolite formation by recombinant human CYP2D6; conditions: trazodone 4 μM; NADPH; 37 °C, 40 min
Sequence of CYP2D6 (P10635 whole entry): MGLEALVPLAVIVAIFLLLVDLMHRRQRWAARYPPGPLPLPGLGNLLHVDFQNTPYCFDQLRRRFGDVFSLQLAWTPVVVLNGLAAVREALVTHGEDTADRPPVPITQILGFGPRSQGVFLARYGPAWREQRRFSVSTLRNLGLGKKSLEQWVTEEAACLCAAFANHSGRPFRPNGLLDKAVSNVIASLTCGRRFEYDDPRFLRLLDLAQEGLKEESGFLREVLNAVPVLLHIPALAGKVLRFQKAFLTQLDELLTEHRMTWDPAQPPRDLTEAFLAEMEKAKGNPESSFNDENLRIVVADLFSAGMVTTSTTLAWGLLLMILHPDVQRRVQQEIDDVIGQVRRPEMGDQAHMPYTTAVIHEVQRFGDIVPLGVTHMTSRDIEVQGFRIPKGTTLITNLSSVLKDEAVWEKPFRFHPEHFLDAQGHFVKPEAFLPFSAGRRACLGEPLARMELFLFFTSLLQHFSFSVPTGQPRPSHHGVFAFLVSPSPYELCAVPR
Description: as §2

CYP3A9 = biological target: T4, CYP3A9 (Rattus norvegicus, UniProt P51538); experiment: Metabolite formation by recombinant rat CYP3A9; conditions: trazodone 4 μM; NADPH; 37 °C, 40 min
T4 sequence (P51538 1-503): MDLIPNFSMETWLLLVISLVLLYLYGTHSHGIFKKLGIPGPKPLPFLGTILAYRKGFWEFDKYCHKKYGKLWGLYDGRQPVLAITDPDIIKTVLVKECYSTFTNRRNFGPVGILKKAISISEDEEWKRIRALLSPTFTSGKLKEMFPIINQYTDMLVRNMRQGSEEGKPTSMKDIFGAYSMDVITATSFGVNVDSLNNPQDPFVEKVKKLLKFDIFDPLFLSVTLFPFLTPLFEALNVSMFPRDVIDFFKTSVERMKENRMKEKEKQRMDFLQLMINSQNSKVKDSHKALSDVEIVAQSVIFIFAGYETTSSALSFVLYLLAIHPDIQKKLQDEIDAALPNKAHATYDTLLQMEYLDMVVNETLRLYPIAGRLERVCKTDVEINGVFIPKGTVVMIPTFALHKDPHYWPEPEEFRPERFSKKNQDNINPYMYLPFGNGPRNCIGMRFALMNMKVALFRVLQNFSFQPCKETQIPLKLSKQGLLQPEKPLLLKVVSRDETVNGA
Description: as §1

Sequence of CYP3A4 (P08684 whole entry): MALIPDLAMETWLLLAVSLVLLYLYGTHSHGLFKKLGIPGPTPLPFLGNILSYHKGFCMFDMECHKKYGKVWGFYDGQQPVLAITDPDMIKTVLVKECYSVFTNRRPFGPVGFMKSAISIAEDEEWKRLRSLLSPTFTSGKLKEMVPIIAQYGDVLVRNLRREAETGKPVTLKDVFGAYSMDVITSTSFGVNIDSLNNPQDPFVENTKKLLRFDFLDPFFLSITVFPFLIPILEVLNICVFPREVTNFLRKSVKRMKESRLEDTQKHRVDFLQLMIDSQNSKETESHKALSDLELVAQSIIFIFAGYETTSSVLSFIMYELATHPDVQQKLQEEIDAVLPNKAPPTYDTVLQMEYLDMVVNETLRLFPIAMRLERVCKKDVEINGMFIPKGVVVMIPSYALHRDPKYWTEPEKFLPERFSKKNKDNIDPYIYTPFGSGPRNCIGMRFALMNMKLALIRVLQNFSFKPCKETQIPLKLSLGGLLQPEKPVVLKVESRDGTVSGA

Row | Structure (SMILES) | Formation of trazodone phase I metabolite by recombinant human CYP3A4 (as LC/MS peak areas) (CYP3A4) | Formation of trazodone phase I metabolite by recombinant human CYP2A6 (as LC/MS peak areas) (CYP2A6) | Formation of trazodone phase I metabolite by recombinant human FMO1 (as LC/MS peak areas) (FMO1) | Formation of trazodone phase I metabolite by recombinant rat CYP2C11 (as LC/MS peak areas) (CYP2C11) | Formation of trazodone phase I metabolite by recombinant human CYP2D6 (as LC/MS peak areas) (CYP2D6) | Formation of trazodone phase I metabolite by recombinant rat CYP3A9 (as LC/MS peak areas) (CYP3A9)
1 | O=c1n(CCCN2CCNCC2)nc2ccccn12 [Metabolite M15] | 6716 | 0 | 0 | 1210 | 0 | 719
2 | O=c1n(CCCO)nc2ccccn12 [Metabolite M20] | 236 | 0 | 0 | 743 | 0 | 1080
3 | Clc1cccc(N2CCNCC2)c1 [mCPP, m-chlorophenylpiperazine] | 32991 | 8 | 6 | 6920 | 0 | 18577

Source: article PMC12518996 (Frontiers in Pharmacology, 2025)
